Assay results: patent US20230321125A1, “COMPOSITIONS OF GINSENOSIDE RG3 AND GINSENOSIDE RG5 AND THEIR PHARMACEUTICAL USES INCLUDING ANTI-TUMOR EFFECTS” (DALIAN FUSHENG NATURAL MEDICINE DEVELOPMENT CO., LTD., priority 2020, published 2023)

Test system: QBC939/ADM
Test: CCK-8 assay of cytotoxicity of targeted drugs with or without ginsenoside composition in drug-resistant cells
Assay type: cell-based, Human
Conditions: 24 h
Protocol: 1. Materials and Methods Human cholangiocarcinoma cell line QBC939, purchased from Shanghai Honshun Biological Technology Co., Ltd.
The human cholangiocarcinoma cell line QBC939 was thawed and inoculated into T25 cell culture flasks filled with cell culture medium, and QBC939/ADM was constructed by continuously increasing the contact concentration of ADM.
The cells were divided into a blank zeroed control group, a normal control group and 9 experimental groups, each containing 100 μL of 80 μg/mL ginsenoside composition for cell culturing.
The control group (chemotherapeutic drug group): 100 μL of culture medium containing chemotherapeutic drugs was added to each well. The chemotherapeutic drugs included the targeted drugs afatinib (400 μg/mL), ceritinib (1000 μg/mL) and erlotinib (200 μg/mL). Six replicate wells were set up for each drug.
The experimental group (chemotherapeutic drugs+traditional Chinese medicine): 100 μL of culture medium containing chemotherapeutic drugs+ginsenoside composition was added to each well, namely afatinib (400 μg/mL)+ginsenoside composition (80 μg/mL), ceritinib (1000 μg/mL)+ginsenoside composition (80 μg/mL), and erlotinib (200 μg/mL)+ginsenoside composition (80 μg/mL). Six replicate wells were set up for each drug.
The cytotoxic effects of the chemotherapeutic drugs were detected 24 h later.

C#Cc1cccc(Nc2ncnc3cc(OCCOC)c(OCCOC)cc23)c1 [erlotinib]
Absorbance value (OD, CCK-8), Erlotinib (control group: erlotinib 200 μg/mL alone): 1.294 ± 0.131

Cc1cc(Nc2ncc(Cl)c(Nc3ccccc3S(=O)(=O)C(C)C)n2)c(OC(C)C)cc1C1CCNCC1 [ceritinib]
Absorbance value (OD, CCK-8), Ceritinib (control group: ceritinib 1000 μg/mL alone): 1.304 ± 0.096

CN(C)C/C=C/C(=O)Nc1cc2c(Nc3ccc(F)c(Cl)c3)ncnc2cc1O[C@H]1CCOC1 [afatinib]
Absorbance value (OD, CCK-8), Afatinib (control group: afatinib 400 μg/mL alone): 1.179 ± 0.147
